The subject of series [1] is adult male Wistar rats. In words: Intravenous cocaine self-administration under a multiple, alternating schedule of food reinforcement and cocaine self-administration. Type of series: in vivo, rat. The following applies: for cocaine self-administration and reinstatement of extinguished cocaine seeking: pretreatment with the single drug, summary of the studies.
Method: Adult male Wistar rats were trained under a multiple, alternating schedule of cocaine and food self-administration. This schedule consisted of alternating periods of cocaine access and food reinforcement. In some instances, as described further below, three doses of cocaine (0.125, 0.25, or 0.50 mg/kg/infusion) were tested. Rats were also periodically trained with saline substitution (cocaine extinction) and food extinction during the same session.
More specifically, adult male Wistar rats were implanted with chronic jugular catheters. Following recovery from surgery, the rats were trained to respond under a multiple, alternating schedule of food reinforcement and cocaine self-administration. Food-maintained responding was used to control for the non-specific motor effects of the various treatments. During the food component of the schedule, the stimulus light located above the food response lever was illuminated to indicate the availability of food reinforcement. […] A 25-second timeout followed the delivery of each food pellet. During this timeout, the stimulus light was darkened and responses on the food lever were counted but had no scheduled consequences. Responding on the other (cocaine) lever during the food component also had no scheduled consequences. […] Following 15 minutes of access to food, all stimulus lights in the chamber were darkened for a 1-minute timeout. Following the timeout, the stimulus light above the cocaine response lever was illuminated to indicate the availability of cocaine (0.125, 0.25, or 0.5 mg/kg/infusion). […] A 20-second timeout period followed each infusion. […] After 15 minutes of access to cocaine and a 1-minute timeout, the rats were again allowed 15 minutes access to the food component of the schedule. Access to food and cocaine alternated in this manner every 15 minutes during the two hour behavioral sessions so that each rat was exposed to food and cocaine for four 15-minute periods each. Each behavioral session began with 15 minutes access to either food or cocaine, and this alternated daily. Stable baselines of responding were established when the total number of cocaine and food presentations, as well as the number of presentations during each of the four exposures each session, varied less than 10% for three consecutive sessions. At least three different doses of cocaine (e.g., 0.125, 0.25, and 0.5 mg/kg/infusion) were tested. Rats were first trained to self-administer 0.25 mg/kg/infusion, which was the standard dose of cocaine used. When responding stabilized, the dose was changed to 0.125 or 0.5 mg/kg/infusion as appropriate.
Once stable baselines of responding were obtained, dose-response curves for the various compounds were individually generated for each rat. Rats were treated with each dose at least twice with a minimum of two days of baseline cocaine self-administration interspersed between each test. Each group of rats was tested with only two of the test compounds to minimize potential carryover effects.
The test system of series [2] is rats. Conditions: Goeders et al., cited from earlier work.
Series [3] deals with male Wistar rats. The series can be described thus: Forced Swim Test (FST), animal model of depression.
Series [4] in a line: Phase I single- and multiple-rising dose study: plasma pharmacokinetics. The following applies: human, in vivo. The method, then:
METHODS: This was a single- and multiple-rising dose study. Healthy volunteers who smoke, aged 18-65, received a single AM dose on Day 1, BID dosing on Days 3-9 and a single AM dose on Day 10. Three sequential dose cohorts of 8 subjects (6 drug, 2 placebo) received the following doses of MET and OX, respectively: 270 and 12 mg; 540 and 24 mg; and 720 and 24 mg. Total daily doses were double these amounts on BID dosing days. Primary outcomes were safety and pharmacokinetics of MET, its active metabolite (metyrapol), and OX. Safety measures included vital signs, ECGs an standard safety labs. Cortisol and other HPA axis parameters were monitored closely throughout the study.

Series [5] has as its system adult male Wistar rats. In words: Cue-induced reinstatement of extinguished cocaine seeking (model of relapse). It counts as in vivo, rat. Conditions: FIG. 11; chronic metyrapone 50 mg/kg ip, once per day for 14 days. The protocol:
Training to self-administer cocaine: In one model, rats were exposed to alternating 15-minute periods of access to cocaine self-administration and food reinforcement. Food was used to control for potential nonspecific, ataxis effects of the drugs and combinations. […] In this model, rats are trained to self-administer cocaine and the ability of conditioned cues in the environment to reinstate extinguished responding is assessed and taken as a measure of relapse.
Cue-induced Reinstatement of Extinguished Cocaine Seeking: The experiments described herein were designed to investigate whether or not drug combinations identified as effective in reducing cocaine self-administration would also block the ability of conditioned cues to reinstate extinguished cocaine-seeking behavior. Adult male Wistar rats were implanted with chronic jugular catheters and trained to self-administer cocaine (0.25 mg/kg/infusion) by pressing one of the response levers in the experimental chamber (i.e., the “active” or “cocaine” lever) under a fixed-ratio four (FR4) schedule of reinforcement during daily 2-hour sessions conducted 5 days per week. At the start of each session, both levers were extended into the chamber and the stimulus light above the active lever was illuminated to indicate the availability of cocaine. […] A 20-second timeout period followed each infusion. […]

The mark [6] stands for this setting: FIG. 8, high dose alone: muscimol 1-4 mg/kg ip, CP-154,526 10-80 mg/kg ip.
The mark [7] stands for this setting: FIG. 8, low, ineffective doses alone: muscimol 0.5-2.0 mg/kg ip, CP-154,526 5-25 mg/kg ip.
Where [8] appears, read: FIG. 3, low, ineffective doses alone: alprazolam 0.2-2 mg/kg ip, ketoconazole 5-75 mg/kg ip.
[9] abbreviates: FIG. 7, high dose alone: metyrapone 25-175 mg/kg ip, alprazolam 1-5 mg/kg ip.
Setting [10] is: FIG. 7, low, ineffective doses alone: metyrapone 25-50 mg/kg ip, alprazolam 0.5-2 mg/kg ip.
The mark [11] stands for this setting: FIG. 9, high dose alone: muscimol 1-4 mg/kg ip, metyrapone 25-175 mg/kg ip.

As for `CCCCN(CC)c1nc(C)nc2c1c(C)cn2-c1c(C)cc(C)cc1C` [CP-154,526], the “cocaine self-administration (infusions, percentage of baseline)” value in series [1] (FIG. 6, high dose alone: CP-154,526 10-80 mg/kg ip, oxazepam 5-25 mg/kg ip) was “reduced cocaine self-administration”; in series [1] (FIG. 6, low, ineffective doses alone: CP-154,526 5-25 mg/kg ip, oxazepam 5-25 mg/kg ip) it was “did not significantly affect cocaine self-administration”; in series [1] (setting [6]) it was “reduced cocaine self-administration”; in series [1] (setting [7]) it was “did not significantly affect cocaine self-administration”. Moreover, the “cocaine self-administration and reinstatement of extinguished cocaine seeking” value in series [1] (rats) was “decrease cocaine self-administration and the reinstatement of extinguished cocaine seeking”.

As to `Cc1nnc2n1-c1ccc(Cl)cc1C(c1ccccc1)=NC2` [alprazolam], in series [2] (multiple schedule of iv cocaine and food reinforcement, initial testing, 1993), the “responding maintained by food and cocaine” value was “reduced responding maintained by both food and cocaine”. For the same molecule, the figures for the “cocaine self-administration (number of cocaine infusions)” value in series [1] (setting [8]), in series [1] (setting [9]) and in series [1] (setting [10]) were “did not significantly affect cocaine self-administration”, “reduced cocaine self-administration” and “did not significantly affect cocaine self-administration”, respectively. Moreover, the “cocaine self-administration and reinstatement of extinguished cocaine seeking” value in series [1] (rats) was “decrease cocaine self-administration and the reinstatement of extinguished cocaine seeking”.

Consider `CC(=O)N1CCN(c2ccc(OCC3COC(Cn4ccnc4)(c4ccc(Cl)cc4Cl)O3)cc2)CC1` (stereo not drawn) [ketoconazole], for which the intravenous cocaine self-administration entry in series [2] (pretreatment) was “reduced cocaine self-administration”. The “cocaine self-administration (number of cocaine infusions)” value in series [1] (setting [8]) was “did not significantly affect cocaine self-administration”. Further, the “cocaine- or food-maintained responding” value in series [1] (ketoconazole 12.5 mg/kg tested alone) is given as “no effect”. Moreover, the “cocaine self-administration (number of cocaine infusions)” value in series [1] (rat, in vivo) is “did not significantly affect cocaine self-administration”. In series [1] (rats), the “minimally effective dose (reduces cocaine self-administration by at least 50% without affecting food-maintained responding)” value was 25 mg/kg; the “cocaine self-administration and reinstatement of extinguished cocaine seeking” value is “decrease cocaine self-administration and the reinstatement of extinguished cocaine seeking”.

Take `CC(C)(C(=O)c1cccnc1)c1cccnc1` [metyrapone]: the plasma corticosterone result in series [2] (pretreatment, 1996) is on record as “significant dose-related decreases”. The intravenous cocaine self-administration result in series [2] (pretreatment) was “significant dose-related decreases”. For the same molecule, the immobility time result in series [3] (chronic administration, single drug, Met50 group (metyrapone 50 mg/kg)) is on record as “showed a lessening of immobility time”. The “group means of immobility compared with vehicle (tolerance)” value in series [3] (chronically treated groups that received only Ox or Met) is “equal to or exceeded the vehicle”. For the same molecule, the “cocaine self-administration (number of cocaine infusions)” value was “reduced cocaine self-administration” in series [1] (FIG. 1A, high dose alone: metyrapone 25-175 mg/kg ip, oxazepam 5-80 mg/kg ip); “reduced cocaine self-administration” in series [1] (setting [9]); “did not significantly affect cocaine self-administration” in series [1] (setting [10]). In addition, the “cocaine self-administration (infusions, percentage of baseline)” value in series [1] (setting [11]) is recorded as “reduced cocaine self-administration”. In addition, the “cocaine self-administration and reinstatement of extinguished cocaine seeking” value in series [1] (rats) is “decrease cocaine self-administration and the reinstatement of extinguished cocaine seeking”. Also, the “t1/2, mean” value in series [4] is reported as 1.887 h. For the same molecule, the “cocaine seeking (responding on the active lever during reinstatement)” value in series [5] was “reduced cocaine seeking to levels seen when only saline was delivered”.

As for `NCc1cc(=O)[nH]o1` [muscimol], the “cocaine self-administration (infusions, percentage of baseline)” value in series [1] (setting [6]) is “reduced cocaine self-administration”; in series [1] (setting [7]) it was “did not significantly affect cocaine self-administration”; in series [1] (setting [11]), “reduced cocaine self-administration”.

These data come from patent US20200016134A1, “COMPOSITIONS AND METHODS FOR TREATING SUBSTANCE ABUSE DISORDERS” (EMBERA NEUROTHERAPEUTICS, INC., priority 2016, published 2020).
